{
  "source": "ChEMBL document CHEMBL1201862",
  "about": "“PubChem BioAssay data set” (2004)",
  "key": {"DLD-1": {"test_system": "DLD-1", "experiment": "cytotoxicity in DLD-1 colorectal cells, late-stage follow-up, cytotoxicity control for KLF5 inhibitor project, cell-based, luminescence, round 1 (AID 485338)", "format": "functional", "conditions": "Homo sapiens"}, "[1]": {"experiment": "Luminescence-based counterscreen assay for KLF5 inhibitors: dose response cell-based high throughput screening assay to identify cytotoxic compounds using the IEC-6 intestinal epithelial cell line. [Related pubchem assays: 1700 (Primary screen.), 1834 (Confirmation screen.), 1858 (Summary AID.), 1905 (Counterscreen.)]", "format": "functional"}, "[2]": {"target": "G-protein coupled receptor 55 (Homo sapiens, UniProt Q9Y2T6)", "experiment": "GPR55 agonists via beta-arrestin recruitment, primary screen, imaging, U2OS cells, beta-arrestin-GFP redistribution (AID 1961)", "format": "functional"}, "[3]": {"target": "Tyrosine-protein phosphatase non-receptor type 12 (Homo sapiens, UniProt Q05209)", "sequence (Q05209 whole entry)": "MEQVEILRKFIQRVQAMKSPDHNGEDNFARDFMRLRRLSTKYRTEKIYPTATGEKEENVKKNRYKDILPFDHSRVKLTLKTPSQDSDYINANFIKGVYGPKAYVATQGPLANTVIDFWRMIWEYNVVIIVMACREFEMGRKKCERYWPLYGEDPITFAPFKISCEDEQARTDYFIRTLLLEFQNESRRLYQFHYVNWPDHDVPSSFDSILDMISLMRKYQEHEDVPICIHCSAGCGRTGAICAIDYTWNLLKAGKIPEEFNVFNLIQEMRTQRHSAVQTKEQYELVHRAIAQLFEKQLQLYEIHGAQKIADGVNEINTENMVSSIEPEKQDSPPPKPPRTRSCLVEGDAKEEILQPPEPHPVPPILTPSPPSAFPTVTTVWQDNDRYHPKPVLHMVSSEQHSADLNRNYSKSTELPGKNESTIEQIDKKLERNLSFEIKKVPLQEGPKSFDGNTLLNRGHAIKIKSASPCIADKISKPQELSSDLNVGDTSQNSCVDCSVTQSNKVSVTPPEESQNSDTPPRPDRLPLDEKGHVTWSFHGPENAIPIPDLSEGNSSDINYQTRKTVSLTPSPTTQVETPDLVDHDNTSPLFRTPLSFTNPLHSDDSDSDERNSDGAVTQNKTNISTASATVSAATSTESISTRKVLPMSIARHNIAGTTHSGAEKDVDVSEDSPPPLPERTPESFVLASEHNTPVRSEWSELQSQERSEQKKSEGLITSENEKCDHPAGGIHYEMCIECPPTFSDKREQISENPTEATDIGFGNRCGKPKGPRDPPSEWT", "experiment": "SAR Selectivity Analysis of small molecule inhibitors of PEST using pCAP in a fluorescence assay. [Related pubchem assays (depositor defined):AID1779, AID1784, AID2135]", "format": "functional"}, "[4]": {"target": "T1, Tyrosine-protein phosphatase non-receptor type 22 (Homo sapiens, UniProt Q9Y2R2)", "T1 sequence (Q9Y2R2 whole entry)": "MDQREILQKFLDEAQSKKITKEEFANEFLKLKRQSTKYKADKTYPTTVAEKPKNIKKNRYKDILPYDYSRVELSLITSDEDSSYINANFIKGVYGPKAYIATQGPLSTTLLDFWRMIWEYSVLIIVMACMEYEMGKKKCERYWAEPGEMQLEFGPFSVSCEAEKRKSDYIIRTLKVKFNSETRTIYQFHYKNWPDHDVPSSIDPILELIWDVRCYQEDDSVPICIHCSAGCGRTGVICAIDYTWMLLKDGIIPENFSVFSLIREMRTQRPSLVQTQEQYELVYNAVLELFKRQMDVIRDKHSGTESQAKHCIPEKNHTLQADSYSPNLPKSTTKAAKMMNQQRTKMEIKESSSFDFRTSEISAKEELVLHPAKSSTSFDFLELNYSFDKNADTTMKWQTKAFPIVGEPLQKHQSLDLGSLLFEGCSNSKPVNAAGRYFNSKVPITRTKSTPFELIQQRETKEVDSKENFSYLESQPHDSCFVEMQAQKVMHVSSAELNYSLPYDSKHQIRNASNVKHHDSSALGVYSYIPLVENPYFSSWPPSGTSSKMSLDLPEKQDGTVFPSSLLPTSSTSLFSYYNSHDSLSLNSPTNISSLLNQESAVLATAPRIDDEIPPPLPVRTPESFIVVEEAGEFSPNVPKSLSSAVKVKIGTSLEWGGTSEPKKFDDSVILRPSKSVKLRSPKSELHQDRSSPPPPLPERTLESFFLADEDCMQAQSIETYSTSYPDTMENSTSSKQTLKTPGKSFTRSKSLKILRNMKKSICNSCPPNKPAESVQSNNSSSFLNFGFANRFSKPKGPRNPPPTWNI", "experiment": "LYP (PTPN22) phosphatase inhibitor potency, SAR follow-up, biochemical, pCAP fluorogenic substrate, fluorescence, set 3 (AID 449727)", "format": "functional"}, "[5]": {"target": "T1, Tyrosine-protein phosphatase non-receptor type 22", "experiment": "SAR LYP1 Fluorescent Assay using OMFP substrate for In Vitro dose response studies - Set 3. [Related pubchem assays (depositor defined):AID1779, AID1784, AID2140, AID2686]", "format": "functional"}, "Integrin alpha-L": {"target": "Integrin alpha-L (Mus musculus, UniProt P24063)", "sequence (P24063 whole entry)": "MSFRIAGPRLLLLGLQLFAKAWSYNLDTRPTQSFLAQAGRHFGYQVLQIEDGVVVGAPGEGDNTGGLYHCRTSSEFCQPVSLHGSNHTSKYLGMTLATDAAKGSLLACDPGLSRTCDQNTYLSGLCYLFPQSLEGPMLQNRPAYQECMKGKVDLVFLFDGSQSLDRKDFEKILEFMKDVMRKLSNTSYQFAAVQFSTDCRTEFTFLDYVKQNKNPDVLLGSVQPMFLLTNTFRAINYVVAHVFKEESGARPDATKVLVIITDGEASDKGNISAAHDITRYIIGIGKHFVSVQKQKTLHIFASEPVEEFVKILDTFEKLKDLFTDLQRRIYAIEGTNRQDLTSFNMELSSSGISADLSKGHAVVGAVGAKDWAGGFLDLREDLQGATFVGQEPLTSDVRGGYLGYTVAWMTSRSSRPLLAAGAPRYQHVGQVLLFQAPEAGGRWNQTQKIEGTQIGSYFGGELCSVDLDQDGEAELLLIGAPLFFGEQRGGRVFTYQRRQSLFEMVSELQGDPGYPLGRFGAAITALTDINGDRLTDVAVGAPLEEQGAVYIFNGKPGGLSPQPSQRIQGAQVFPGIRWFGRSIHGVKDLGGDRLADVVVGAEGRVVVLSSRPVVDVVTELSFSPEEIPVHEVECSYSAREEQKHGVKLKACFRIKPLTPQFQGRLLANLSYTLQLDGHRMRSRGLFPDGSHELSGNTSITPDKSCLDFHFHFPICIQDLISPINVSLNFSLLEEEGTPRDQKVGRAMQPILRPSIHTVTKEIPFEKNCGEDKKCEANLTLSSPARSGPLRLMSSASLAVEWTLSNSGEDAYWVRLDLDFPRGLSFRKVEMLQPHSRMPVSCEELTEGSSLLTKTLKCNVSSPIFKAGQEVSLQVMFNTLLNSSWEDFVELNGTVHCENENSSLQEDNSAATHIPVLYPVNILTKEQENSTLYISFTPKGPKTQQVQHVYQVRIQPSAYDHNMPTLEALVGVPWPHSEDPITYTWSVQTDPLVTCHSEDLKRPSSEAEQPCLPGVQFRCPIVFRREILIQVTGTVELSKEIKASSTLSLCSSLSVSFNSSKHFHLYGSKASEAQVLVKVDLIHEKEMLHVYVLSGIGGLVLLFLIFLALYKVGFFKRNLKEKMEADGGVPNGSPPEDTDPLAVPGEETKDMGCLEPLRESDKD", "experiment": "modulators of CD8 T cell-vesicle binding, dose response, powder samples, mouse 2C CD8+ cells (AID 504565)", "format": "functional"}, "T-cell": {"test_system": "T-cell", "experiment": "inhibitors of CD8+ T cell–vesicle binding, dose response, mouse 2C CD8+ T cells, flow cytometry (AID 485284)", "format": "functional"}, "[6]": {"target": "Glucose-6-phosphate 1-dehydrogenase (Homo sapiens, UniProt P11413)", "sequence (P11413 whole entry)": "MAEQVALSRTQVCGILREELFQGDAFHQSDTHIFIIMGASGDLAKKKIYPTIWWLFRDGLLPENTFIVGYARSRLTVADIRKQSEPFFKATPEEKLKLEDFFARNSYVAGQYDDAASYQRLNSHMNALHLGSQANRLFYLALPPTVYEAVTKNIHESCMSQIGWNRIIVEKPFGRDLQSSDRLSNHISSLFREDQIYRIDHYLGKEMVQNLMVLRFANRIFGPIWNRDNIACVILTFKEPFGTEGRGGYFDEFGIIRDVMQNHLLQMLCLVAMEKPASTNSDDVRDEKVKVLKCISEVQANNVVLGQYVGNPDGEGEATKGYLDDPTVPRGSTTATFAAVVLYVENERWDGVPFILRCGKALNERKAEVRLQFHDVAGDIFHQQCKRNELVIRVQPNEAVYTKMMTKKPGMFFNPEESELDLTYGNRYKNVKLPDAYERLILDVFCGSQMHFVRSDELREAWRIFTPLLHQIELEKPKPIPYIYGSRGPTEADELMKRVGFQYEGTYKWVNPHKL", "experiment": "human G6PD enzyme inhibitors, dose response, selectivity assay for P. falciparum G6PD inhibitor project, biochemical, fluorescence (AID 504792)", "format": "functional"}, "[7]": {"experiment": "Fluorescence-based cell-based high throughput dose response assay for inhibitors of the interaction of nucleotide-binding oligomerization domain containing 2 (NOD2) and the receptor-interacting serine-threonine kinase 2 (RIPK2).", "format": "functional", "conditions": "Homo sapiens"}, "Beta Lactamase": {"target": "Beta Lactamase (Pseudomonas aeruginosa, UniProt Q932Y6)", "sequence (Q932Y6 whole entry)": "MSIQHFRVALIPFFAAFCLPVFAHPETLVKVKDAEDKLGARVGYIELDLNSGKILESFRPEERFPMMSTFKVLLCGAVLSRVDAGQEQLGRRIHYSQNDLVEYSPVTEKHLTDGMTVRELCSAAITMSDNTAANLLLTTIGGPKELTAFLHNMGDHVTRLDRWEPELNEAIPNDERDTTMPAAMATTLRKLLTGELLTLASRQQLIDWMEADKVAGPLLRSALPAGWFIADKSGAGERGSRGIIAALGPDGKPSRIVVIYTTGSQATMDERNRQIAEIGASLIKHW", "experiment": "beta-lactamase reporter inhibitor potency, dose response, artefact control for NOD2-RIPK2 interaction inhibitor project, BLA reporter cells, FRET fluorescence (AID 651552)", "format": "functional, cell-based"}, "Hexokinase": {"target": "Hexokinase (Trypanosoma brucei, UniProt Q38C41)", "experiment": "Confirmation assay for inhibitors of Trypanosoma brucei hexokinase 1-Analogue-first series. [Related pubchem assays (depositor defined):AID1430, AID1632, AID2516, AID2560, AID2579, AID2600, AID449725, AID492951]", "format": "functional"}, "[8]": {"target": "T2, Small ubiquitin-related modifier 1 (Homo sapiens, UniProt P63165)", "T2 sequence (P63165 whole entry)": "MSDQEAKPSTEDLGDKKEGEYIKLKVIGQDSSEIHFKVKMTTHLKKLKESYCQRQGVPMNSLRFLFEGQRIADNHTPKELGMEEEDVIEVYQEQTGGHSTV", "experiment": "inhibitors of SUMO1 partner interactions, dose response, biochemical, FRET (AID 624383)", "format": "functional", "conditions": "read-out: IC50_Mean"}, "Genome polyprotein": {"target": "Genome polyprotein (dengue virus type 2, UniProt P29990)", "experiment": "Dengue-2 NS5 methyltransferase inhibitors, primary screen, biochemical, confirmation dose response (AID 588689)", "format": "functional"}, "Salmon testes DNA": {"test_system": "Salmon testes DNA", "experiment": "DNA intercalators displacing acridine orange, dose response, artefact control for KSHV LANA DNA-binding inhibitor project, biochemical, fluorescence polarization, cherry-picked samples, set 2 (AID 504727)", "set-up": "species or system Salmonidae"}, "ORF 73": {"target": "T3, ORF 73 (Human herpesvirus 8, UniProt O40947)", "T3 sequence (O40947 whole entry)": "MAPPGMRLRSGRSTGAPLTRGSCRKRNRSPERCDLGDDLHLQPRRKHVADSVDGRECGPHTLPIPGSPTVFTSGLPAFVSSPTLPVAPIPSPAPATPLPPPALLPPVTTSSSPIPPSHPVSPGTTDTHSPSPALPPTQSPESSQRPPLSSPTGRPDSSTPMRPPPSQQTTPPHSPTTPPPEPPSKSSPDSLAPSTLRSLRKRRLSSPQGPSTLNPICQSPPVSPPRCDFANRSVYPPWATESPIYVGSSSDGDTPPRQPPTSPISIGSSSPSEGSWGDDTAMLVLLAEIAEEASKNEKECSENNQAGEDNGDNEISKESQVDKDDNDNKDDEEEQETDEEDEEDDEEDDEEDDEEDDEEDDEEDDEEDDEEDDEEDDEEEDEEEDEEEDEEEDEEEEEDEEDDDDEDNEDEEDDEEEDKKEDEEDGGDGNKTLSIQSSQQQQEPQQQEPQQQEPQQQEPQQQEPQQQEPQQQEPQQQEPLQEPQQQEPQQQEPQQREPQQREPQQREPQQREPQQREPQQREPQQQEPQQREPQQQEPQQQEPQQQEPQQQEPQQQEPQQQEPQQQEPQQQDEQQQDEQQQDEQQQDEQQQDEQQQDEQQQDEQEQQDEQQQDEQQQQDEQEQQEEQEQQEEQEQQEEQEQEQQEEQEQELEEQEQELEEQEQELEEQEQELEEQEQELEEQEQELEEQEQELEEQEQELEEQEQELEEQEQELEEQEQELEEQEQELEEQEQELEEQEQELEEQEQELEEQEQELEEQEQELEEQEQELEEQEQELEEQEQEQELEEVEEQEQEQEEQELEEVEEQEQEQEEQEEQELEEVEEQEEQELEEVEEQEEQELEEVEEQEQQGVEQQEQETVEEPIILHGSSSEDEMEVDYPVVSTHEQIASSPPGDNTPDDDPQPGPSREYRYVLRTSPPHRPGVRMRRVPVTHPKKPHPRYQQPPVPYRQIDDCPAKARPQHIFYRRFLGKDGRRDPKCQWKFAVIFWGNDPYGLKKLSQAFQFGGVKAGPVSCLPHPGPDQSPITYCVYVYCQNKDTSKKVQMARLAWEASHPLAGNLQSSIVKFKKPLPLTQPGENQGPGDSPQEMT", "experiment": "inhibitors of C-LANA binding to LBS DNA, dose response, biochemical, fluorescence polarization, cherry-picked samples (AID 504725);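 also: fluorescence polarization of a labeled DNA duplex reporting LANA DNA binding; potency is for inhibitors that block LANA binding to the DNA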", "set-up": "species or system Human gammaherpesvirus 8"}, "[9]": {"target": "T2, Small ubiquitin-related modifier 1", "experiment": "inhibitors of SUMO1 peptide binding, dose response, biochemical, fluorescence polarization, uHTS hits (AID 624382)", "format": "functional", "conditions": "read-out: IC50_Mean"}, "[10]": {"target": "T4, Rac GTPase-activating protein 1 (Homo sapiens, UniProt Q9H0H5)", "T4 sequence (Q9H0H5 whole entry)": "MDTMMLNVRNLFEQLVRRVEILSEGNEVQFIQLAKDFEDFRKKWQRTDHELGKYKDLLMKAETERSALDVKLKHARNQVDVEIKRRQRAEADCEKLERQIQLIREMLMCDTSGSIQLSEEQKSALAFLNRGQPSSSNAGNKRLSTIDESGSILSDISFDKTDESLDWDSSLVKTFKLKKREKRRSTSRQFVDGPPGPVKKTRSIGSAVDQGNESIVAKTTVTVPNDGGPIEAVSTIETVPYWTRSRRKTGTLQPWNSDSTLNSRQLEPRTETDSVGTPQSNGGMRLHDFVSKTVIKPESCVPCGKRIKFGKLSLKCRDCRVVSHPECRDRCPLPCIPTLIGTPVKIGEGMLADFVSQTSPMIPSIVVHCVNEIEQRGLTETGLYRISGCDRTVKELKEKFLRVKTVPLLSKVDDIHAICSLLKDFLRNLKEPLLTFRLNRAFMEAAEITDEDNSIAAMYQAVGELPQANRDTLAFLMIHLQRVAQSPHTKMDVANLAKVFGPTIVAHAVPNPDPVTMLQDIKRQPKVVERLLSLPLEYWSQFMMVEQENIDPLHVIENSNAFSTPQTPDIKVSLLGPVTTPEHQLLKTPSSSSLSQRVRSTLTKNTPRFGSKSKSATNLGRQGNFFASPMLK", "experiment": "MgcRacGAP GTPase-activating activity inhibitors, confirmation, biochemical, ADP Hunter fluorescence, primary and confirmatory (AID 624330)", "format": "functional"}, "[11]": {"target": "T5, Neuropeptides B/W receptor type 1 (Homo sapiens, UniProt P48145)", "T5 sequence (P48145 whole entry)": "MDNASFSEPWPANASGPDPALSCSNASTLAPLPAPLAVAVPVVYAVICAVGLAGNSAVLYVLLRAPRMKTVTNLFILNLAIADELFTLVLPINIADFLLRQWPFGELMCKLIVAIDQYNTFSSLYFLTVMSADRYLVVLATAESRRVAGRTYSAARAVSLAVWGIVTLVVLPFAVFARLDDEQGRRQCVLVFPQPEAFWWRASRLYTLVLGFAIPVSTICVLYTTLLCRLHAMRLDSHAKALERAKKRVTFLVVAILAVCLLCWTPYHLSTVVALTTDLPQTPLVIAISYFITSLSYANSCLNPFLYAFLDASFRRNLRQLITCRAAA", "experiment": "GPR7 antagonist potency, late-stage follow-up, cell-based, fluorescence, dose response (AID 463251)", "format": "functional"}, "[12]": {"target": "Melanin-concentrating hormone receptor 1 (Homo sapiens, UniProt Q99705)", "sequence (Q99705 whole entry)": "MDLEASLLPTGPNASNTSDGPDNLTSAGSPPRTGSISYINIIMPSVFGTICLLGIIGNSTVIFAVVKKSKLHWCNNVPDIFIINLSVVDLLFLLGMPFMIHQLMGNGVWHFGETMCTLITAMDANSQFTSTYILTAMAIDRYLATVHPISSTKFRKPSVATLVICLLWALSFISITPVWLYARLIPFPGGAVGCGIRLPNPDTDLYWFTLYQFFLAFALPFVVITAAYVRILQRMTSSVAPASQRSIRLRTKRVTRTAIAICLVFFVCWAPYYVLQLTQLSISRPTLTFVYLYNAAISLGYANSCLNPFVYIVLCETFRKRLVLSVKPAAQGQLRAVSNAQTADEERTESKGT", "experiment": "Late-stage fluorescence-based counterscreen for antagonists of the G-protein coupled receptor 7 (GPR7): cell-based dose response assay to identify antagonists of the melanin-concentrating hormone receptor 1 (MCHR1). [Related pubchem assays (depositor defined):AID1861, AID1880, AID1952, AID2148, AID2251, AID2257, AID485339]", "format": "functional"}, "[13]": {"target": "Envelope glycoprotein gp160 (Human immunodeficiency virus 1, UniProt Q6QLK5)", "sequence (Q6QLK5 whole entry, the tested form may be a part)": "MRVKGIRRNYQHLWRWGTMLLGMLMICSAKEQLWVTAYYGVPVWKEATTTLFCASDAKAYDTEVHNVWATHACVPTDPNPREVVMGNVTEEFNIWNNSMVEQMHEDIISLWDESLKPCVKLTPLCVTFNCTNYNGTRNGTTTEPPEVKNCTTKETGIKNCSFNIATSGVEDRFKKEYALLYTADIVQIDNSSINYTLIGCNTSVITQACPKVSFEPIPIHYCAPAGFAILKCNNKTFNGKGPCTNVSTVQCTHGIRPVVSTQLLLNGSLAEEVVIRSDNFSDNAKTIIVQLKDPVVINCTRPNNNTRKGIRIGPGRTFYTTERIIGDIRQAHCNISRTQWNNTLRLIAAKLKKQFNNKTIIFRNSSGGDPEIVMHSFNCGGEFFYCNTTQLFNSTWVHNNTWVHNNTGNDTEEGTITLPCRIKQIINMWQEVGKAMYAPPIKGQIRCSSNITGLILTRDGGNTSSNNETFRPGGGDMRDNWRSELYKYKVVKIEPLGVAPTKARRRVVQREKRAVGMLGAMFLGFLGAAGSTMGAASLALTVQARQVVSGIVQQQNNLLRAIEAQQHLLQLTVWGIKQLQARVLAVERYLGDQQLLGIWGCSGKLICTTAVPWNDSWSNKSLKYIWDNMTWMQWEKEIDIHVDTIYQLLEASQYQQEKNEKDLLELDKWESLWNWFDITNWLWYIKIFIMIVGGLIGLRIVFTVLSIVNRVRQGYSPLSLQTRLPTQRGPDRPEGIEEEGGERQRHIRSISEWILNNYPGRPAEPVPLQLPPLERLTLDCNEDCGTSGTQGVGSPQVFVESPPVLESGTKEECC", "experiment": "inhibitors of HIV fusion peptide binding, primary screen, biochemical, uHTS, fluorescence dequenching (AID 1986)"}},
  "note": "The source made the active and inactive calls.",
  "data": [
    {"smiles": "CCOC(=O)c1sc(NC(=O)c2cc3c(s2)CCC(C)C3)nc1C", "note": "(stereo unspecified)", "values": [
      {"measurement": "IC50", "setting": "DLD-1", "result": "19.3 µM (inactive)"},
      {"measurement": "IC50", "setting": "[1]", "result": "> 39.8 µM (not active)"}
    ]},
    {"smiles": "Cc1ccc(C)n1-n1cnc2sc(-c3ccccc3)cc2c1=O", "values": [
      {"measurement": "EC50", "setting": "[2]", "result": "8.51 µM (active)"}
    ]},
    {"smiles": "CCOC(=O)C1=C(C)N=c2sc(=Cc3ccc(OCC(=O)O)cc3)c(=O)n2C1c1ccc(OC(C)C)cc1", "note": "(stereo unspecified)", "values": [
      {"measurement": "IC50", "setting": "[3]", "result": "3.85 µM (active)"},
      {"measurement": "IC50", "setting": "[4]", "result": "25.7 µM (active)"},
      {"measurement": "IC50", "setting": "[5]", "result": "45.1 µM (active)"}
    ]},
    {"smiles": "CCOC(=O)C1CCCN(S(=O)(=O)c2ccc(F)c(C(=O)Nc3ccc(F)c(F)c3)c2)C1", "note": "(stereo unspecified)", "values": [
      {"measurement": "EC50", "setting": "Integrin alpha-L", "result": "19.3 µM (active)"},
      {"measurement": "EC50", "setting": "T-cell", "result": "0.202 µM (active)"}
    ]},
    {"smiles": "Cc1ccc(NC(=O)Cn2sc3ccccc3c2=O)cc1", "values": [
      {"measurement": "IC50", "setting": "[6]", "result": "15.1 µM (active)"},
      {"measurement": "IC50", "setting": "[7]", "result": "5.7 µM (active)"},
      {"measurement": "IC50", "setting": "Beta Lactamase", "result": "17.7 µM (inactive)"},
      {"measurement": "IC50", "setting": "Hexokinase", "result": "5.18 µM (active)"}
    ]},
    {"smiles": "Nc1cccc2c(O)cc(S(=O)(=O)O)cc12", "values": [
      {"measurement": "IC50", "setting": "[8]", "result": "5.35 µM (active)"},
      {"measurement": "IC50", "setting": "Genome polyprotein", "result": "42.7 µM (active)"},
      {"measurement": "AC50", "setting": "Salmon testes DNA", "result": "132 µM (active)"},
      {"measurement": "AC50", "setting": "ORF 73", "result": "29.7 µM (active)"},
      {"measurement": "IC50", "setting": "[9]", "result": "> 66.6 µM (inactive)"},
      {"measurement": "IC50", "setting": "[10]", "result": "98.6 µM (active)"}
    ]},
    {"smiles": "O=C(C1CCCCN1Cc1cccc(Cl)c1)N1CCN(c2ccc([N+](=O)[O-])cc2)CC1", "note": "(stereo unspecified)", "values": [
      {"measurement": "IC50", "setting": "[11]", "result": "2.8 µM (active)"},
      {"measurement": "IC50", "setting": "[12]", "result": "2.9 µM (active)"}
    ]},
    {"smiles": "OCCOCCN1CCN(C(c2ccccc2)c2ccc(Cl)cc2)CC1", "note": "(stereo unspecified) [HYDROXYZINE PAMOATE]", "values": [
      {"measurement": "IC50", "setting": "[13]", "result": "6.31 µM (active)"}
    ]}
  ]
}
